Holding throughout (format): functional
In assay [1] the test system is Rattus norvegicus. Briefly: Antihypertensive activity in spontaneous hypertensive rat model assessed as change in blood pressure at 100 mg/kg, po on day 1 and 3 measured 2 hrs post dose on day 3 by standard 3-day test.
The subject of assay [2] is Rattus norvegicus. Briefly: Antihypertensive activity in spontaneous hypertensive rat model assessed as change in blood pressure at 100 mg/kg, po on day 1 and 3 measured 2 hrs post dose on day 1 by standard 3-day test.
The subject of assay [3] is Rattus norvegicus. As to the kind of experiment: Antihypertensive activity in spontaneous hypertensive rat model assessed as change in blood pressure at 50 mg/kg, po on day 1 and 3 measured 2 hrs post dose on day 3 by standard 3-day test.

Active and inactive are the calls of the source. The rule behind the calls is not given here.

Regarding `COc1cccc(C(=O)NN2CCN(CCc3c[nH]c4ccccc34)CC2)c1`, the Activity in the assay with Rattus norvegicus [1] worked out at 2 mmHg; in the assay on Rattus norvegicus [2] it was 21 mmHg.

Take `Cc1[nH]c2ccccc2c1CCN1CCN(NC(=O)c2ccc([N+](=O)[O-])cc2)CC1`: the Activity in the assay on Rattus norvegicus [1] is listed as 20 mmHg; in the assay on Rattus norvegicus [2], 25 mmHg.

With `COc1cc2[nH]c(C)c(CCN3CCN(NC(=O)c4ccc(F)cc4)CC3)c2cc1OC`, the values for the Activity in the assay on Rattus norvegicus [1] and with Rattus norvegicus [2] were 23 mmHg and 9 mmHg, respectively.

Take `O.O=C(NN1CCN(CCc2c[nH]c3ccccc23)CC1)c1ccccc1`: the Activity is listed as 56 mmHg in the assay with Rattus norvegicus [1] and 24 mmHg with Rattus norvegicus [2].

For `COc1cc(OC)cc(C(=O)NN2CCN(CCc3c[nH]c4ccccc34)CC2)c1`, the Activity in the assay on Rattus norvegicus [1] was found to be 111 mmHg; with Rattus norvegicus [2] it was 46 mmHg.

Turning to `O=C(NN1CCN(CCc2c[nH]c3ccccc23)CC1)C1CC2CCC1C2` (stereo unspecified), the Activity in the assay with Rattus norvegicus [1] was found to be 11 mmHg; in the assay on Rattus norvegicus [2], 20 mmHg.

For `COc1ccc(C(=O)NN2CCN(CCc3c[nH]c4ccccc34)CC2)cc1`, the Activity was found to be 19 mmHg in the assay with Rattus norvegicus [1] and 25 mmHg in the assay on Rattus norvegicus [2].

For the compound `O=C(NN1CCN(CCc2c[nH]c3ccccc23)CC1)c1ccc(F)cc1`, the figures for the Activity in the assay with Rattus norvegicus [1] and in the assay on Rattus norvegicus [2] were 57 mmHg and 56 mmHg, respectively.

As to `CC(=O)NN1CCN(CCc2c[nH]c3ccccc23)CC1`, the Activity stood at 40 mmHg with Rattus norvegicus [1] and 32 mmHg with Rattus norvegicus [2].

Take `O=C(NN1CCN(CCc2c[nH]c3ccccc23)CC1)C(c1ccccc1)c1ccccc1`: the Activity with Rattus norvegicus [1] amounted to 10 mmHg; in the assay with Rattus norvegicus [2], 3 mmHg.

For the compound `Cc1ccc(C(=O)NN2CCN(CCc3c[nH]c4ccccc34)CC2)cc1`, the values for the Activity in the assay with Rattus norvegicus [1] and with Rattus norvegicus [2] were 43 mmHg and 18 mmHg, respectively.

On to `Cc1cccc(C(=O)NN2CCN(CCc3c[nH]c4ccccc34)CC2)c1`, for which the values for the Activity in the assay on Rattus norvegicus [1] and in the assay on Rattus norvegicus [2] were 26 mmHg and 17 mmHg, respectively.

For the compound `COc1cc(C(=O)NN2CCN(Cc3c[nH]c4ccccc34)CC2)cc(OC)c1OC`, the Activity in the assay on Rattus norvegicus [1] is on record as 36 mmHg; in the assay with Rattus norvegicus [2] it was 20 mmHg.

As to `COc1ccccc1C(=O)NN1CCN(CCc2c[nH]c3ccccc23)CC1`, the Activity in the assay on Rattus norvegicus [1] was 23 mmHg; in the assay with Rattus norvegicus [2], 7 mmHg.

Regarding `O=C(NN1CCN(CCc2c[nH]c3ccccc23)CC1)c1ccc([N+](=O)[O-])cc1`, the Activity came out at 16 mmHg in the assay on Rattus norvegicus [1] and 17 mmHg in the assay on Rattus norvegicus [2].

As to `O=C(NN1CCN(CCc2c[nH]c3ccccc23)CC1)c1ccco1`, the Activity in the assay with Rattus norvegicus [1] is 64 mmHg; in the assay with Rattus norvegicus [2] it was 58 mmHg.

In the case of `O=C(NN1CCN(Cc2c[nH]c3ccccc23)CC1)c1ccc(F)cc1`, the result with Rattus norvegicus [1] and with Rattus norvegicus [2] was Active.

For `O=C(NN1CCN(CCc2c[nH]c3ccccc23)CC1)c1ccncc1`, the Activity in the assay on Rattus norvegicus [1] amounted to 24 mmHg; in the assay on Rattus norvegicus [2] it was 23 mmHg.

As for `O=C(NN1CCN(Cc2c[nH]c3ccccc23)CC1)c1ccccc1`, the result in the assay with Rattus norvegicus [1] and in the assay with Rattus norvegicus [2] was Active.

Turning to `COc1cc2[nH]c(C)c(CCN3CCN(NC(=O)c4ccccc4)CC3)c2cc1OC`, the Activity in the assay on Rattus norvegicus [1] came out at 12 mmHg; with Rattus norvegicus [2], 9 mmHg.

With `Cc1ccccc1C(=O)NN1CCN(CCc2c[nH]c3ccccc23)CC1`, the Activity in the assay with Rattus norvegicus [1] and in the assay on Rattus norvegicus [2] was 19 mmHg in each case.

For the compound `O=C(NN1CCN(CCc2c[nH]c3ccccc23)CC1)C1CCCCC1`, the Activity in the assay with Rattus norvegicus [1] turned out to be 35 mmHg; in the assay on Rattus norvegicus [2] it was 37 mmHg.

As for `Cl.O=C(NC1CCN(CCc2c[nH]c3ccccc23)CC1)c1ccccc1` [INDORAMIN HYDROCHLORIDE], the Activity was 63 mmHg in the assay on Rattus norvegicus [2] and 79 mmHg in the assay with Rattus norvegicus [3].

Regarding `O=C(NN1CCN(CCc2c[nH]c3ccccc23)CC1)c1cccc(C(F)(F)F)c1`, the Activity is recorded as 19 mmHg with Rattus norvegicus [1] and 49 mmHg in the assay with Rattus norvegicus [2].

In the case of `COc1cc(C(=O)NN2CCN(CCc3c[nH]c4ccccc34)CC2)cc(OC)c1OC`, the Activity with Rattus norvegicus [1] is on record as 70 mmHg; in the assay with Rattus norvegicus [2], 63 mmHg.

Take `O=C(NN1CCN(CC(O)c2c[nH]c3ccccc23)CC1)c1ccccc1` (racemic): the Activity is reported as 33 mmHg with Rattus norvegicus [1] and 30 mmHg in the assay with Rattus norvegicus [2].

As for `COc1cc2[nH]c(C)c(CCN3CCN(NC(=O)c4ccc(C(F)(F)F)cc4)CC3)c2cc1OC.Cl`, the Activity turned out to be 5 mmHg with Rattus norvegicus [1] and 2 mmHg in the assay with Rattus norvegicus [2].

Turning to `Cc1[nH]c2ccccc2c1CCN1CCN(NC(=O)c2ccccc2)CC1`, the Activity is 37 mmHg in the assay on Rattus norvegicus [1] and 39 mmHg in the assay on Rattus norvegicus [2].

In the case of `O=C(NN1CCN(CCc2c[nH]c3ccccc23)CC1)c1ccc(C(F)(F)F)cc1`, the values for the Activity in the assay on Rattus norvegicus [1] and in the assay on Rattus norvegicus [2] were 36 mmHg and 9 mmHg, respectively.

For `O=C(NN1CCN(CCc2c[nH]c3ccccc23)CC1)c1ccc(Cl)cc1`, the figures for the Activity in the assay with Rattus norvegicus [1] and in the assay with Rattus norvegicus [2] were 22 mmHg and 17 mmHg, respectively.

Take `Cc1[nH]c2ccccc2c1CCN1CCN(NC(=O)c2ccc(F)cc2)CC1`: the results for the Activity with Rattus norvegicus [1] and with Rattus norvegicus [2] were 25 mmHg and 29 mmHg, respectively.

For the compound `O=C(NN1CCN(CCc2c[nH]c3ccccc23)CC1)c1ccccc1F`, the figures for the Activity in the assay on Rattus norvegicus [1] and with Rattus norvegicus [2] were 56 mmHg and 47 mmHg, respectively.

Regarding `COc1cc2[nH]c(C)c(CCN3CCN(NC(=O)c4ccccc4OC)CC3)c2cc1OC.Cl`, the Activity is given as 15 mmHg in the assay with Rattus norvegicus [1] and 4 mmHg in the assay with Rattus norvegicus [2].
